Measured values as given in patent US8207188B2, “Treatment of diseases modulated by a H4 receptor agonist” (priority 2006, dated 2012).
Entries after “also recorded” stand apart in the source; their conditions may differ.

How the values were obtained:
H4R = molecular target: T1, H4R (Mus musculus, UniProt Q91ZY2); experiment: Cell cycle status after H4R silencing with siRNA; type: cell-based; settings: 10 μM; H4R siRNA transfected c-kit+ cells
T1 construct: endogenous in cells; host or cells: freshly sorted c-kit+ haematopoietic progenitor cells
T1 sequence (Q91ZY2 1-391): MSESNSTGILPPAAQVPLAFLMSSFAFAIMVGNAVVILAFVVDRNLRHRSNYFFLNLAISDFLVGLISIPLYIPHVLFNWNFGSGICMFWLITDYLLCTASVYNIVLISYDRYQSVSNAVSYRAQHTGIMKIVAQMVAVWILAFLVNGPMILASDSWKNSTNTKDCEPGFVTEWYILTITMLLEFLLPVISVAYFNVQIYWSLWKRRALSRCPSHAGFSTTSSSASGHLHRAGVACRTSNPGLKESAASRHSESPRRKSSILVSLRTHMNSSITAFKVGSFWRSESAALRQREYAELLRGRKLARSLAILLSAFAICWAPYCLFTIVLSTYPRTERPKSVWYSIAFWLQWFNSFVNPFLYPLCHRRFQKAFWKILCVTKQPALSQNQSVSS
Protocol: H4R silencing was performed with freshly sorted c-kit^+ cells. For transfection, 3 μl of HiPerFect reagent (Qiagen; Courtaboeuf, France) and 4 μl ([…]) of human and 8 μl (80 pmol) of murine H4R siRNA, scrambled FITC-labeled or unconjugated control siRNAs (all from Santa Cruz Biotechnology) were incubated in 50 μl x-vivo medium (Cambrex; East Rutherford, N.J.) for 20 min at room temperature. The mixture was then added to 50 μl of cell suspension at a final concentration of 10^6 cells/ml and incubated for 20 h, when transfection efficiency was verified with scrambled FITC-conjugated siRNA. Cells were then centrifuged and resuspended at a concentration of 10^5 cells/ml in StemSpan medium with growth factor cocktail. The extinction of H4R protein expression was ascertained by FACS analysis after 24 h. After 3 days of culture with or without tritoqualine (10 μM) or Clobenpropit (10 μM) cells were counted and their viability was assessed by trypan blue exclusion. The cell cycle status was assessed after an overnight incubation.

[1] = test system: hematopoietic progenitor cells; experiment: CFU of hematopoietic progenitor cells in the presence of Ara-C; type: cell-based
From the text: Ara-C is a chemotherapeutic agent that kills cancel cells (or actively dividing cells).

[2] = test system: human TF1 cells that express H4R; experiment: TF1 cell proliferation assay (GM-CSF promoted); type: cell-based; settings: Homo sapiens, TF-1, 72 h; 10 μM, 3 days, three separate assays (n=3)
Protocol: Tritoqualine was tested on a cell proliferation assay using human TF1 cells that express H4R.
TF1 cell proliferation is promoted using granulocyte/macrophage colony-stimulating factor (GM-CSF). In this cell proliferation model H4R agonists inhibit cell proliferation. Clobenpropit (CB), a known H4R agonist at a dose of 10^−5M (10 μM) was used as a known cell proliferation inhibition control. […] Each experiment used 100,000 TF1 cells/mL incubated for three days with GM-CSF (10 ng/mL). After addition of TRQ in the range of 10^−5M (10 μM) to 10^−7 M (0.1 μM), and incubation for 3 days, cell proliferation was assessed and compared to that of 10 μM CB.

[3] = test system: ckit positive hematopoietic progenitor cells; experiment: ckit receptor expression on hematopoietic progenitor cells; type: cell-based; settings: 10 μM
From the text: In FIG. 16 the reference to CB-5, E1-5, and E2-5 is the same as above. CKit is a receptor on the surface of hematopoetic cells. Quantifying the ckit receptor is a measure of the differentiation from the progenitor state to the hematopoetic cell state.

[4] = test system: Mouse medullary cells C57B1/6 expressing H4R; experiment: Proliferation of Colony Forming Cells (CFC) in semi-solid media; type: cell-based; settings: 10 μM, 7 days
Protocol: Using the assay described in Example 15, above, the effect of TRQ or CB on cells expressing H4R was tested. Mouse medullary cells C57B1/6 expressing H4R (50,000 cells/Petri dish) were incubated in a semi-solid media with haematopoietic growth factors (IL-3: 10 ng/ml) for 7 days with TRQ or CB.
Using the assay described in Example 15, above, the effect of TRQ or CB on cells expressing H4R was tested. Mouse medullary cells C57B1/6 expressing H4R (50,000 cells/Petri dish) were incubated in a semi-solid media with haematopoietic growth factors (IL-3: 10 ng/ml) for 7 days with a TRQ (racemic mixture of RR and SS isomers at 1 μM and 10 μM concentration); TRQ isomer E1 (10 μM concentration); TRQ isomer E2 (10 μM concentration) and CB (10 μM concentration).

[5] = test system: Mouse medullary cells C57B1/6 expressing H4R; experiment: Percentage of cells at G0/G1 phase, TRQ racemate and enantiomers with and without CB (Example 21); type: cell-based; settings: 10 μM, compared to control (GF only)
Protocol: This experiment was conducted at two concentrations for all TRQ molecules (10 μM and 1 μM) in the presence and absence of CB (10 μM).
Using the assay described in Example 15, above, the effect of TRQ or CB on cells expressing H4R was tested. Mouse medullary cells C57B1/6 expressing H4R (50,000 cells/Petri dish) were incubated in a semi-solid media with haematopoietic growth factors such as IL-3 (10 ng/ml) for 7 days with a TRQ (racemic mixture of RR and SS isomers at 1 μM and 10 μM concentration); purified TRQ isomer E1 (10 μM and 1 μM concentration); purified TRQ isomer E2 (10 μM and 1 μM concentration) and CB (10 μM concentration). […] Similar results were shown with the purified TRQ isomers. In each experiment cells were incubated in the presence of growth factors (GF, FIG. 15).

[6] = Reintroduction of causal food allergen in food allergy patients; type: in vivo, human; settings: baseline patients treated with one drug alone
From the text: Allergens tested came from either […], or ALLERBIO.
The direct test with the Nutella® was strongly positive for allergy. This patient was hospitalized in two occasions for the same dramatic allergic reaction to Nutella® spread. Furthermore, the patient presented allergies to pneumoallergens.
Continuation of the above treatment for over 8 months afforded reversal of allergic and digestive symptoms due to food allergy.
The patient under study had survived two cases of anaphylactic shock due to ingestion of shrimps. […] Later the patient was able to ingest five shrimps without any local signs and no global reaction.
Baseline patients had signs of food allergies and the food allergy symptoms were not adequately managed with an H1 antagonist and cromoglycate. A group of 15 patients presenting signs of food allergies is tested with allergens such as the following: peanut, milk, tomato, potato, flour of wheat, soybean, fish, and shrimp. Allergens tested came from either […], or ALLERBIO.
All patients had history of hospitalization and reactions such as Quincke's edema and asthma crisis. Most of the causal allergens were peanut (six patients), egg (four patients) and soybean (five patients) of them (with other several positive food allergens at different degrees of reaction). […]

Row | Compound | activity inhibiting the cell cycle at the G0/G1 phase after H4R siRNA (H4R) | protection of cells / cell CFU in the presence of Ara-C [1] | inhibition at 10 µM [2] | ckit expression [3] | inhibition of proliferation of CFC ([4]; Example 16, IL-3 10 ng/ml) | inhibitory activity of cell proliferation (CFC) ([4]; Example 20) | percentage of cells at the G0/G1 phase / inhibitory activity of cell proliferation [5] | management of food allergy symptoms with the single drug [6]
1 | NC(=NCc1ccc(Cl)cc1)SCCCc1cnc[nH]1 [CB, N′-[(4-chlorophenyl)methyl]-1-[3-(3H-imidazol-4-yl)propylthio]formamidine] | reversed | provides protection to the cells | 23% | inhibits of ckit expression | inhibits the proliferation of CFC | inhibits the proliferation of CFC | increases the percentage of cells at the G0/G1 phase; also recorded: slightly better inhibitory activity of cell proliferation compared to that of Racemic TRQ | –
2 | CC(C)(O)c1ccccc1CC[C@@H](SCC1(CC(=O)O)CC1)c1cccc(/C=C/c2ccc3ccc(Cl)cc3n2)c1 [Montelukast®] | – | – | – | – | – | – | – | did not yield satisfactory management
